For orientation: logP means the decadic logarithm of the partition coefficient of the neutral form, usually between octanol and water. Lower therefore signals lower lipophilicity. As usually defined, the Log P is a log measure of how a compound divides between an organic and an aqueous phase.

Series [1] in a line: LogP value in octanol/water. Conditions: for logP: octanol/water.
The nature of series [2]: Pour point observation according to ASTM D-97. Type of series: physicochemical. From the text: A number of working examples were composed and tested for flow indicative of solidification point depression (e.g., pour point temperatures). The compositions tested herein are said to “pour or flow” at the indicated temperature when the PIC of each working example, vertically at rest on a substantially horizontal surface the cylindrical container (radius 1 inch, height 2 inches), flows observably within about 10 seconds when tipped to a substantially horizontal position. This amount of flow is known to be sufficient to indicate that the composition is pourable or pumpable for use in the field, where such concentrates are applied to one or more crude oil transportation or storage systems. The flowing samples are said to have a pour point at temperatures where the flow is observed. The pour point is above the solidification temperature for a given sample. The effect on pour point was observed according to ASTM D-97 test method (including storage for a half hour in a freezer set the associated temperature prior to observation for pour or flow).
The effect on pour point was observed according to ASTM D-97 test method (storage for at least one half hour in a freezer set at a specific temperature (e.g., −60° C.)). The specific low Log P molecules, amounts thereof, amounts of PI polymer, with the balance comprising a refined petroleum distillate or solvent such as HAN; and pour point observations according to ASTM D-97 are listed in Table 2 below.
A comparison of pour points was made between control samples having no low Log P molecules and samples including low Log P molecules to determine the total amount of pour point depression.
The relative amounts of pour point depression of PICs having combination nonyl phenol formaldehyde resin and alpha olefin/maleic anhydride (OMAC) copolymer PIs (specifically OMAC amide polymers), were tested by the ASTM D-97 method. A comparison of pour points was made between control samples having no low Log P molecules and samples including low Log P molecules to determine the total amount of pour point depression.
A low Log P ether molecules was tested for pour point depression in various PICs. The 2-methoxy ethanol was tested in various amounts in PICs and in PICs having various amounts of PI polymer (alkyl phenol formaldehyde resin) therein.

Where [3] appears, read: compounds of table 1 tested for pour point and freezing point.

Where two headings read alike, the source gives them in different places.

In the case of `CCOCCO`, the logP in series [1] was -0.05. The same measure, in the same setting: the value for `CC1COC(=O)O1` (stereo not shown) was 0.37; that for `O=C1CCCCN1` was 0.33. The molecule `CCCCOCCO` showed a logP in series [1] (LogP, Table 1) of 1.01.

Regarding `O=C1OCCO1`, in series [1], the logP came to 0.01. The same measure, in the same setting: as for `CN1CCCC1=O`, the figure is 0.07; as for `CN1CCCCC1=O`, 0.57. On the same count and under the same terms, the value for `CNC(=O)NC` was -0.25; that for `COCC(C)OC(C)=O` (stereo not shown) was 0.73. As to 2-methoxy ethanol, the “suitability as pour point depressant in PIC compositions” value (from here on “suitability as pour point depressant”) in series [2] (setting [3]) is “showed promise as pour point depressants”. Besides, the “lowered the pour point by” value in series [2] (versus the PIC of working example 28) is “about 90 °C”. For the same molecule, in series [1] (Table 1), the logP was −0.43. In addition, the “Log P” value in series [1] (text b150) is listed as −0.43. Take `CC(O)CO` (stereo not shown) [1,2-propanediol]: in series [2] (setting [3]), the “suitability as pour point depressant” value was “showed promise as pour point depressants”. For the molecule `C1COCCO1` [1,4-dioxane], the “suitability as pour point depressant” value in series [2] was “showed promise as pour point depressants”. Regarding `CCCCC(CC)CO` (stereo not shown) [2-Ethyl Hexanol, 2-ethyl hexanol], the logP in series [1] and in series [1] (Table 1) was 2.87 in each case. For the molecule `O=C1CCCN1` [2-Pyrollidone, 2-pyrrolidone], the “suitability as pour point depressant” value in series [2] (setting [3]) is given as “showed promise as pour point depressants”. Moreover, the lipophilicity (logP) was -0.18 in series [1] and −0.18 in series [1] (Table 1). For the molecule `O=C1COCCN1` [3-Ketomorpholine, 3-ketomorpholine], the logP in series [1] is -0.49; in series [1] (Table 1), −0.49. `O=C1CCCO1` [Butryolactone, butyrolactone]: the “suitability as pour point depressant” value in series [2] is “showed promise as pour point depressants”. In series [1] (LogP, Table 7, of the low LogP molecule type), this molecule displayed a logP of -0.59. Molecule `CC(C)CO` [Isobutanol] yielded a logP in series [1] of 0.8.

Regarding `CC(C)O` [Isopropanol], the “suitability as pour point depressant” value in series [2] (setting [3]) is “showed promise as pour point depressants”.

Consider `CO` [Methanol], for which, in series [2], the “pour point depressed by” value was determined as 70 °C and the “suitability as pour point depressant” value was “showed promise as pour point depressants”. This molecule gave a logP in series [1] of -0.32. For the same molecule, in series [1] (Table 1), the logP is recorded as −0.32. `CN(C)CCO` [dimethylethanolamine]: the “suitability as pour point depressant” value in series [2] (setting [3]) is recorded as “showed promise as pour point depressants”. `O=C1CCCO1` [drawing 12]: the logP in series [1] (Table 1) is on record as −0.57. As for `CN(C)CCO` [drawing 17], the logP in series [1] (LogP, Table 1) was -0.29. The molecule `C1COCCO1` [drawing 23] yielded a logP in series [1] of -0.23.
